Test results taken from patent US9549556B2, “Macrocyclic picolinamides as fungicides” (DOW AGROSCIENCES LLC, priority 2013, dated 2017).
Read-outs that look alike come from different tables or passages of the source.

Assays:
[1] = tested on: Colletotrichum lagenarium; experiment: Cucumber anthracnose (COLLLA) disease control; format: in vivo, Glomerella lagenarium (anamorph Colletotrichum lagenarium); conditions: 1 DP, 100 ppm
Leptosphaeria nodorum = experiment: Wheat glume blotch (LEPTNO) disease control; format: in vivo; conditions: 1 DP, 100 ppm
Uncinula necator = experiment: Grape powdery mildew (UNCINE) disease control; format: in vivo; conditions: 1 DP, 100 ppm
Alternaria solani = experiment: Tomato early blight (ALTESO) disease control; format: in vivo; conditions: 1 DP, 100 ppm
[2] = tested on: Blumeria graminis f. sp. hordei; experiment: Barley powdery mildew (ERYSGH) disease control; format: in vivo; conditions: 1 DP, 100 ppm
Erysiphe cichoracearum = experiment: Powdery mildew of cucumber (ERYSCI) disease control; format: in vivo; conditions: 1 DP, 100 ppm
Cercospora beticola = experiment: Leaf spot of sugar beets (CERCBE) disease control; format: in vivo; conditions: 1 DP, 100 ppm, sugar beet
Pyricularia oryzae = format: in vivo, Magnaporthe grisea (anamorph Pyricularia oryzae); conditions: 1 DP, 100 ppm, rice
Puccinia triticina = experiment: Wheat brown rust (PUCCRT) disease control on wheat seedlings; format: in vivo; conditions: read-out: PUCCRT disease control rating (% Control); for pest or weed control at 121.5 g/ha: 121.5 g/H, low volume (track spray) application; for pest or weed control at 100 ppm: high volume application
Septoria tritici = experiment: Leaf blotch of wheat (SEPTTR) disease control on wheat seedlings; format: in vivo, Mycosphaerella graminicola (anamorph Septoria tritici); conditions: Zymoseptoria tritici, read-out: SEPTTR disease control rating (% Control); for pest or weed control at 121.5 g/ha: 121.5 g/H, low volume (track spray) application; for pest or weed control at 100 ppm: high volume application
Protocol: Evaluation of Fungicidal Activity: Leaf Blotch of Wheat (Mycosphaerella graminicola; Anamorph: Septoria tritici; Bayer Code […]) Technical grades of materials were dissolved in acetone, which were then mixed with nine volumes of water containing 110 ppm Triton X-100. The fungicide solutions were applied onto wheat seedlings using an automated booth sprayer to run-off. All sprayed plants were allowed to air dry prior to further handling. All fungicides were evaluated using the aforementioned method for their activity vs. all target diseases. Wheat leaf blotch and brown rust activity were also evaluated using track spray applications, in which case the fungicides were formulated as EC formulations, containing 0.1% Trycol 5941 in the spray solutions. Wheat plants (variety Yuma) were grown from seed in a greenhouse in 50% mineral soil/50% soil-less Metro mix until the first leaf was fully emerged, with 7-10 seedlings per pot. These plants were inoculated with an aqueous spore suspension of Septoria tritici either prior to or after fungicide treatments. After inoculation the plants were kept in 100% relative humidity (one day in a dark dew chamber followed by two to three days in a lighted dew chamber at 20° C.) to permit spores to germinate and infect the leaf. The plants were then transferred to a greenhouse set at 20° C. for disease to develop. When disease symptoms were fully expressed on the 1st leaves of untreated plants, infection levels were assessed on a scale of 0 to 100 percent disease severity. Percent disease control was calculated using the ratio of disease severity on treated plants relative to untreated plants.

Rhyncosporium secalis = experiment: Barley scald (RHYNSE) disease control; format: in vivo; conditions: 1 DP, 100 ppm

SMILES | pest or weed control at 121.5 g/ha (Puccinia triticina; 24 h, 1DP (1 Day Protectant)) | pest or weed control at 121.5 g/ha (Puccinia triticina; 72 h, 3DC (3 Day Curative)) | pest or weed control at 121.5 g/ha (Septoria tritici; 24 h, 1DP (1 Day Protectant)) | pest or weed control at 121.5 g/ha (Septoria tritici; 72 h, 3DC (3 Day Curative)) | melting point | pest or weed control at 100 ppm (Puccinia triticina; 24 h, 1DP (1 Day Protectant)) | pest or weed control at 100 ppm (Puccinia triticina; 72 h, 3DC (3 Day Curative)) | pest or weed control at 100 ppm (Septoria tritici; 24 h, 1DP (1 Day Protectant)) | pest or weed control at 100 ppm (Septoria tritici; 72 h, 3DC (3 Day Curative)) | further results
CCCC[C@H]1[C@H](C)OC(=O)[C@@H](NC(=O)c2nccc(OC)c2OCOC(C)=O)COC[C@@H]1OCC1CC1 [Compound 6] | > 70% | > 70% | > 70% | > 70% | – | – | – | – | – | COLLLA disease control rating (% Control) [1]: A (>70); LEPTNO disease control rating (% Control) (Leptosphaeria nodorum): A (>70); UNCINE disease control rating (% Control) (Uncinula necator): A (>70); ALTESO disease control rating (% Control) (Alternaria solani): B (≦70); ERYSGH disease control rating (% Control) [2]: A (>70); ERYSCI disease control rating (% Control) (Erysiphe cichoracearum): A (>70); CERCBE disease control rating (% Control) (Cercospora beticola): A (>70); PYRIOR disease control rating (% Control) (Pyricularia oryzae): A (>70); RHYNSE disease control rating (% Control) (Rhyncosporium secalis): A (>70)
COc1ccnc(C(=O)N[C@H]2COC[C@H](Oc3ccccc3)[C@@H](CCC(C)C)[C@H](C)OC2=O)c1OCOC(C)=O [Compound 32] | > 70% | > 70% | > 70% | > 70% | 44 to 50 °C | – | – | – | – | –
CCCO[C@H]1COC[C@H](NC(=O)OC(C)(C)C)C(=O)O[C@@H](C)[C@@H]1CCC(C)C [Compound 39, tert-butyl ((3S,7R,8S,9S)-8-isopentyl-9-methyl-2-oxo-7-propoxy-1,5-dioxonan-3-yl)carbamate] | – | – | – | – | 74 to 77 °C | – | – | – | – | –
CC(C)CC[C@H]1[C@H](C)OC(=O)[C@@H](NC(=O)OC(C)(C)C)COC[C@@H]1OCc1ccccc1 [Compound 42] | – | – | – | – | 70 to 72 °C | – | – | – | – | –
COc1ccnc(C(=O)N[C@H]2COC[C@H](OCc3ccccc3)[C@@H](CCC(C)C)[C@H](C)OC2=O)c1O [Compound 46] | – | – | – | – | 104 to 106 °C | > 70% | > 70% | > 70% | < 70% | –
CC(C)CC[C@H]1[C@H](C)OC(=O)[C@@H](NC(=O)OC(C)(C)C)COC[C@@H]1OC(=O)C1CC1 [Compound 49, (3S,7R,8S,9S)-3-((tert-butoxycarbonyl)amino)-8-isopentyl-9-methyl-2-oxo-1,5-dioxonan-7-yl cyclopropanecarboxylate] | – | – | – | – | 92 to 95 °C | – | – | – | – | –
CCCO[C@H]1COC[C@H](NC(=O)c2nccc(OC)c2O)C(=O)O[C@@H](C)[C@@H]1CCC(C)C [Compound 53, 3-hydroxy-N-((3S,7R,8S,9S)-8-isopentyl-9-methyl-2-oxo-7-propoxy-1,5-dioxonan-3-yl)-4-methoxypicolinamide] | – | – | – | – | 54 to 57 °C | > 70% | > 70% | < 70% | < 70% | –
COc1ccnc(C(=O)N[C@H]2COC[C@H](OC(=O)C3CC3)[C@@H](CCC(C)C)[C@H](C)OC2=O)c1OCOC(C)=O [Compound 57] | > 70% | > 70% | < 70% | > 70% | 45 to 50 °C | – | – | – | – | –
COc1ccnc(C(=O)N[C@H]2COC[C@H](Oc3ccccc3)[C@@H](CCC(C)C)[C@H](C)OC2=O)c1O [Compound 60] | – | – | – | – | 58 to 62 °C | > 70% | > 70% | > 70% | < 70% | –
CC(C)CC[C@H]1[C@H](C)OC(=O)[C@@H](NC(=O)OC(C)(C)C)COC[C@@H]1O [Compound 66, tert-butyl ((3S,7R,8R,9S)-7-hydroxy-8-isopentyl-9-methyl-2-oxo-1,5-dioxonan-3-yl)carbamate] | – | – | – | – | 112 to 115 °C | – | – | – | – | –
COc1ccnc(C(=O)N[C@H]2COC[C@H](OCc3ccccc3)[C@@H](CCC(C)C)[C@H](C)OC2=O)c1OC(C)=O [Compound 67] | > 70% | > 70% | > 70% | > 70% | 55 to 61 °C | – | – | – | – | –
COc1ccnc(C(=O)N[C@H]2COC[C@H](OCC3CC3)[C@@H](Cc3ccc(F)cc3)[C@H](C)OC2=O)c1OCOC(C)=O [Compound 71] | > 70% | > 70% | > 70% | > 70% | – | – | – | – | – | –
COc1ccnc(C(=O)N[C@H]2COC[C@H](OCOCc3ccccc3)[C@@H](Cc3ccccc3)[C@H](C)OC2=O)c1O [Compound 72, N-((3S,7R,8S,9S)-8-benzyl-7-((benzyloxy)methoxy)-9-methyl-2-oxo-1,5-dioxonan-3-yl)-3-hydroxy-4-methoxypicolinamide] | – | – | – | – | – | > 70% | < 70% | < 70% | < 70% | –
COCCC(=O)Oc1c(OC)ccnc1C(=O)N[C@H]1COC[C@H](Oc2ccccc2)[C@@H](Cc2ccccc2)[C@H](C)OC1=O [Compound 73] | > 70% | > 70% | > 70% | > 70% | – | – | – | – | – | –
COc1ccnc(C(=O)N[C@H]2COC[C@H](Oc3ccccc3)[C@@H](Cc3ccccc3)[C@H](C)OC2=O)c1O [Compound 77] | – | – | – | – | 49 to 54 °C | – | – | – | – | –
COc1ccnc(C(=O)N[C@H]2COC[C@H](OCC(C)C)[C@@H](Cc3ccccc3)[C@H](C)OC2=O)c1OC(C)=O [Compound 79] | > 70% | > 70% | > 70% | > 70% | 52 to 57 °C | – | – | – | – | –
COc1ccnc(C(=O)N[C@H]2COC[C@H](OCC3CC3)[C@@H](Cc3ccccc3)[C@H](C)OC2=O)c1OCOC(C)=O [Compound 80] | > 70% | > 70% | > 70% | > 70% | – | > 70% | > 70% | > 70% | > 70% | –
COc1ccnc(C(=O)N[C@H]2COC[C@H](Oc3ccccc3)[C@@H](Cc3ccccc3)[C@H](C)OC2=O)c1OC(C)=O [Compound 81] | > 70% | > 70% | > 70% | > 70% | – | – | – | – | – | –
COc1ccnc(C(=O)N[C@H]2COC[C@H](OCC3CC3)[C@@H](Cc3ccccc3)[C@H](C)OC2=O)c1O [Compound 83] | – | – | – | – | – | > 70% | > 70% | > 70% | > 70% | –
COc1ccnc(C(=O)N[C@H]2COC[C@H](Oc3ccccc3)[C@@H](Cc3ccccc3)[C@H](C)OC2=O)c1OCOC(C)=O [Compound 84] | > 70% | > 70% | > 70% | > 70% | – | – | – | – | – | –
COc1ccnc(C(=O)N[C@H]2COC[C@H](OCC(C)C)[C@@H](Cc3ccccc3)[C@H](C)OC2=O)c1OCOC(C)=O [Compound 85] | > 70% | > 70% | > 70% | > 70% | – | > 70% | > 70% | < 70% | > 70% | –
COc1ccnc(C(=O)N[C@H]2COC[C@H](OCC3CC3)[C@@H](Cc3ccccc3)[C@H](C)OC2=O)c1OC(C)=O [Compound 87] | – | – | – | – | 54 to 59 °C | > 70% | > 70% | > 70% | > 70% | –
